Laboratory results from ChEMBL document CHEMBL1128542, “Synthesis and antiviral activity of benzyl-substituted imidazo [1,5-a]-1,3,5-triazine (5,8-diaza-7,9-dideazapurine) derivatives” (J Med Chem, 1995).

Experiments:
[1] = tested on: MDCK; experiment: Inhibitory concentration against influenza virus B in MDCK cells; type: functional, cell-based; conditions: Canis lupus familiaris
[2] = Minimum toxic concentration required to cause a microscopically detectable alteration of normal MDCK cell morphology; type: toxicity, cell-based, Canis lupus familiaris; conditions: dog, MDCK cells; read-out: MTC
[3] = Minimum toxic concentration required to cause a microscopically detectable alteration of normal vero cell morphology; type: toxicity, cell-based; conditions: chlorocebus sabaeus, Vero cells; read-out: MTC
[4] = tested on: MDCK; experiment: Inhibitory concentration against influenza virus A in MDCK cells; type: functional, cell-based; conditions: Canis lupus familiaris
[5] = tested on: Human immunodeficiency virus 2; experiment: Inhibitory concentration against HIV-2 replication; type: functional, organism-based
[6] = tested on: HeLa; experiment: Inhibitory concentration against respiratory syncytial virus in HeLa cells; type: functional, cell-based; conditions: Homo sapiens
[7] = Minimum toxic concentration required to cause a microscopically detectable alteration of normal HeLa cell morphology; type: toxicity, cell-based; conditions: human, HeLa cells; read-out: MTC
[8] = tested on: CCRF-CEM; experiment: Cytotoxic concentration required to inhibit CEM cell proliferation by 50%.; type: functional; conditions: Homo sapiens
[9] = tested on: Human immunodeficiency virus 1; experiment: Inhibitory concentration against HIV-1 replication; type: functional, organism-based
[10] = tested on: Vero; experiment: Inhibitory concentration against parainfluenza-3 virus in vero cells; type: functional, cell-based; conditions: Chlorocebus sabaeus

SMILES | IC50 [1] | MCC [2] | MCC [3] | IC50 [4] | IC50 [5] | IC50 [6] | MCC [7] | CC50 [8] | IC50 [9] | IC50 [10]
Sc1ncnc2c(Cc3ccccc3)ncn12 | 3.3 µM | 16.5 µM | 24.7 µM | 4.9 µM | 17.7 µM | 3.3 µM | 16.5 µM | 35.1 µM | 20.6 µM | 33 µM
CN(C)c1ncnc2c(Cc3ccccc3)ncn12 | > 790 µM | > 790 µM | > 790 µM | > 790 µM | – | 395 µM | > 790 µM | > 790 µM | – | > 790 µM
Cc1nc(C)n2c1NC(SCc1ccccc1)NC2=O (centres undefined) | 699 µM | > 699 µM | > 350 µM | 69.9 µM | – | 20.9 µM | > 524 µM | 266 µM | – | > 140 µM
Cc1ncn2c(=O)[nH]c(=S)[nH]c12 | > 1100 µM | > 1100 µM | 1100 µM | > 1100 µM | – | > 550 µM | 549 µM | 786 µM | – | > 1100 µM
CSC1N=CNc2c(C)ncn21 (centres undefined) | 22.2 µM | 111 µM | 111 µM | 22.2 µM | – | 111 µM | 556 µM | 176 µM | – | > 222 µM
Cc1ncn2c(S)ncnc12 | 241 µM | 602 µM | 602 µM | 181 µM | – | > 602 µM | 602 µM | 789 µM | – | > 602 µM
Oc1ncnc2c(Cc3ccccc3)ncn12 | > 885 µM | > 885 µM | > 885 µM | > 885 µM | – | 664 µM | > 885 µM | 633 µM | – | > 885 µM
NC(=O)c1ncn([C@@H]2O[C@H](CO)[C@@H](O)[C@H]2O)n1 [RIBAVIRIN] | – | > 820 µM | > 1640 µM | 4.9 µM | – | 11.4 µM | > 820 µM | – | – | 287 µM
Cc1ccc(Cc2ncn3c(=O)[nH]c(=S)[nH]c23)cc1 | > 551 µM | > 735 µM | > 735 µM | 54.4 µM | – | 257 µM | > 735 µM | > 735 µM | – | > 735 µM
Cc1ccc(Cc2ncn3c(S)ncnc23)cc1 | 0.6 µM | 3.1 µM | 4.6 µM | 2.7 µM | – | 0.6 µM | 6.2 µM | 32.8 µM | – | 6.2 µM
Cc1ccc(CSc2ncnc3c(Cc4ccc(C)cc4)ncn23)cc1 | > 278 µM | 278 µM | 278 µM | > 278 µM | – | > 278 µM | 278 µM | > 111 µM | – | > 278 µM
Cc1nc(C)n2c1NC=NC2N (centres undefined) | > 1100 µM | > 1100 µM | > 1100 µM | > 1100 µM | – | > 1100 µM | > 1100 µM | 115 µM | – | > 1100 µM
Cc1ncn2c1NC=NC2N (centres undefined) | > 1340 µM | > 1340 µM | 671 µM | > 1340 µM | – | > 1340 µM | > 1340 µM | 746 µM | – | > 671 µM
CSC1NC(=O)n2cnc(Cc3ccc(C)cc3)c2N1 (centres undefined) | 67.7 µM | 67.7 µM | > 339 µM | 27.1 µM | – | 4 µM | 20.3 µM | 75.3 µM | – | 136 µM
Cc1nc(Cc2ccccc2)c2ncnc(O)n12 | > 833 µM | > 833 µM | 417 µM | 625 µM | – | > 417 µM | 417 µM | 262 µM | – | > 417 µM
Cc1ccc(Cc2ncn3c(N(C)C)ncnc23)cc1 | > 749 µM | > 749 µM | 374 µM | > 749 µM | – | > 749 µM | > 749 µM | 412 µM | – | > 374 µM
O=c1[nH]c(=S)[nH]c2c(Cc3ccccc3)ncn12 | > 581 µM | > 775 µM | 581 µM | 54.2 µM | – | > 775 µM | > 775 µM | 430 µM | – | > 775 µM
O=c1[nH]c(=S)[nH]c2c(CCCCCOCc3ccccc3)ncn12 | > 291 µM | 291 µM | – | 174 µM | – | 23.2 µM | 87.2 µM | 259 µM | – | –
Cc1ccc(CSC2NC(=O)n3c(C)nc(C)c3N2)cc1 (centres undefined) | > 328 µM | 328 µM | 328 µM | 65.6 µM | – | 15.7 µM | 328 µM | 88.8 µM | – | > 131 µM
CSC1N=CNc2c(C)nc(C)n21 (centres undefined) | 103 µM | 515 µM | 515 µM | 103 µM | – | > 515 µM | 515 µM | 440 µM | – | > 515 µM
Cc1ccc(CSC2NC(=O)n3cnc(CCCCCOCc4ccccc4)c3N2)cc1 (centres undefined) | 223 µM | 223 µM | > 89.2 µM | 5.3 µM | – | 2.6 µM | 44.6 µM | 343 µM | – | > 22.3 µM
Cc1nc(C)n2c(S)ncnc12 | 833 µM | > 1110 µM | 556 µM | 222 µM | – | > 556 µM | 556 µM | > 694 µM | – | > 556 µM
Cc1ccc(Cc2ncn3c(O)ncnc23)cc1 | > 833 µM | > 833 µM | 625 µM | > 833 µM | – | > 833 µM | > 833 µM | > 833 µM | – | > 833 µM
NC12CC3CC(CC(C3)C1)C2 [AMANTADINE] | > 1320 µM | > 661 µM | – | 661 µM | – | > 661 µM | 661 µM | – | – | –
Cc1ccc(CSC2NC(=O)n3cnc(Cc4ccc(C)cc4)c3N2)cc1 (centres undefined) | 51.9 µM | 260 µM | > 260 µM | 4.1 µM | – | 1.4 µM | 10.3 µM | 44.6 µM | – | > 104 µM
CSc1ncnc2c(Cc3ccc(C)cc3)ncn12 | 74 µM | 74 µM | > 370 µM | 14.8 µM | – | 22.2 µM | 74 µM | 389 µM | – | > 148 µM
Cc1nc(C)n2c(=O)[nH]c(=S)[nH]c12 | > 1020 µM | > 1020 µM | 1020 µM | 510 µM | – | > 510 µM | 510 µM | 526 µM | – | > 1020 µM
CSC1NC(=O)n2cnc(CCCCCOCc3ccccc3)c2N1 (centres undefined) | 55.8 µM | 55.8 µM | > 112 µM | 11.1 µM | – | 2.2 µM | 11.1 µM | > 120 µM | – | > 27.9 µM
